Reference: ChEMBL document CHEMBL4145615, “Indolyl Azaspiroketal Mannich Bases Are Potent Antimycobacterial Agents with Selective Membrane Permeabilizing Effects and in Vivo Activity” (J Med Chem, 2018)
≈ marks a conversion by molar mass, not a printed value.

Tested on: Mycobacterium tuberculosis variant bovis BCG
Test: Antimycobacterial activity against Mycobacterium bovis BCG ATCC 35734 after 5 days by broth dilution method
Type: functional
Conditions: ATCC 35734, 120 h

SMILES | MIC50 | MIC90
CCCCCCCCn1cc(CN2CCC3(CC2)OCCCO3)c2ccc(OCc3ccccc3)cc21 | 2.2 µM (≈ 1.11 µg/mL) | 3.1 µM (≈ 1.56 µg/mL)
CCCCCCCCn1cc(CN2CCCC3(CC2)OCCS3)c2ccc(OC)cc21 (stereo not given) | 0.7 µM (≈ 0.311 µg/mL) | 1.2 µM (≈ 0.534 µg/mL)
COc1ccc2c(CN3CCCCC3)cn(CCCc3ccccc3)c2c1 | 36 µM (≈ 13.1 µg/mL) | > 50 µM
CCCCCCCCn1cc(CN2CCC3(CC2)OCCO3)c2ccc(C#N)cc21 | 2.5 µM (≈ 1.02 µg/mL) | 5 µM (≈ 2.05 µg/mL)
COc1ccc2c(CN3CCCCC3)cn(C/C=C/c3ccccc3)c2c1 | 31 µM (≈ 11.2 µg/mL) | 49 µM (≈ 17.7 µg/mL)
COc1ccc2c(CN3CCC4(CC3)OCCCO4)cn(CCCOc3ccc(C)c(C)c3)c2c1 | 1.7 µM (≈ 0.814 µg/mL) | 2.7 µM (≈ 1.29 µg/mL)
CCCCCCCCn1cc(CN2CC(c3ccccc3)C2)c2ccc(OC)cc21 | 2 µM (≈ 0.809 µg/mL) | 4 µM (≈ 1.62 µg/mL)
CCCCCCCCn1ccc2cc(OCCCN3CCCC3)ccc21 | 31 µM (≈ 11.1 µg/mL) | 48 µM (≈ 17.1 µg/mL)
CCCCCCCCn1ccc2ccc(OCCCN3CCCCCC3)cc21 | 3.9 µM (≈ 1.5 µg/mL) | 12 µM (≈ 4.62 µg/mL)
CCCCCCCCn1cc(CN2CCC(=O)CC2)c2ccc(OC)cc21 | 17 µM (≈ 6.3 µg/mL) | 24 µM (≈ 8.89 µg/mL)
CCCCCCCCn1cc(CN2CCC3(CC2)OCCCO3)c2c([N+](=O)[O-])cccc21 | 10 µM (≈ 4.44 µg/mL) | 25 µM (≈ 11.1 µg/mL)
COc1ccc2c(CN3CCC4(CC3)OCCCO4)cn(CCCOc3ccc(F)cc3)c2c1 | 1.5 µM (≈ 0.703 µg/mL) | 2.6 µM (≈ 1.22 µg/mL)
CCCCCCCCn1cc(CN2CC3C(C2)C3(F)F)c2ccc(OC)cc21 (stereo not given) | 21 µM (≈ 8.2 µg/mL) | 50 µM (≈ 19.5 µg/mL)
CCCCCCCCn1cc(CNCC2CC3CC3C2)c2ccc(OC)cc21 (stereo not given) | 2 µM (≈ 0.765 µg/mL) | 4 µM (≈ 1.53 µg/mL)
CCCCCCCCn1ccc2cccc(OCCCN3CCCCCC3)c21 | 5 µM (≈ 1.92 µg/mL) | 11 µM (≈ 4.23 µg/mL)
CCCCCCCCn1ccc2ccc(OCCCN3CCC4(CC3)OC[C@H](C)O4)cc21 | 11 µM (≈ 4.87 µg/mL) | 25 µM (≈ 11.1 µg/mL)
CCCCCCCCn1cc(CN2CCC3(CC2)OCCO3)c2ccc(OC(C)C)cc21 | 3 µM (≈ 1.33 µg/mL) | 6 µM (≈ 2.66 µg/mL)
CCCCCCCCn1cc(CNCC2CCC3(CCCC3)O2)c2ccc(OC)cc21 (stereo not given) | 1.8 µM (≈ 0.768 µg/mL) | 4.6 µM (≈ 1.96 µg/mL)
CCCCCCCCn1cc(CN2CCC(S(N)(=O)=O)CC2)c2ccc(OC)cc21 | 8 µM (≈ 3.49 µg/mL) | 22 µM (≈ 9.58 µg/mL)
CCCCCCCCn1cc(CN2CCC3(C=Cc4ccccc43)CC2)c2ccc(OC)cc21 | 1 µM (≈ 0.457 µg/mL) | 2 µM (≈ 0.913 µg/mL)
COc1ccc2c(CN3CCC4(CC3)OCCO4)cn(CCCCOc3ccccc3)c2c1 | 20 µM (≈ 9.01 µg/mL) | 41 µM (≈ 18.5 µg/mL)
CCCCCCCCn1ccc2cccc(OCCCN3CCCCC3)c21 | 5 µM (≈ 1.85 µg/mL) | 13 µM (≈ 4.82 µg/mL)

SMILES | MIC50 | MIC90
CCCCCCCCn1cc(CN2CCOC3(CCCO3)C2)c2ccc(OC)cc21 (stereo not given) | 15 µM (≈ 6.22 µg/mL) | 46 µM (≈ 19.1 µg/mL)
CCCCCCCCn1cc(CN2CCCC3(C2)CC3(F)F)c2ccc(OC)cc21 (stereo not given) | 13 µM (≈ 5.44 µg/mL) | 25 µM (≈ 10.5 µg/mL)
COc1ccc2c(CN3CCC4(CC3)OCCCO4)cn(CCCc3ccccc3)c2c1 | 2.6 µM (≈ 1.13 µg/mL) | 9.8 µM (≈ 4.26 µg/mL)
CCCCCCCCn1ccc2ccc(OCCCN3CCCC3)cc21 | 20 µM (≈ 7.13 µg/mL) | 42 µM (≈ 15 µg/mL)
CCCCCCCCn1cc(CN2CCC3(CC2)OCCO3)c2ccc(OCCC)cc21 | 3 µM (≈ 1.33 µg/mL) | 5 µM (≈ 2.21 µg/mL)
CCCCCCCCn1cc(CN2CCCCC2)c2ccc([N+](=O)[O-])cc21 | 4 µM (≈ 1.49 µg/mL) | 5 µM (≈ 1.86 µg/mL)
COc1ccc(CCCn2cc(CN3CCC4(CC3)OCCO4)c3ccc(OC)cc32)cc1 | 7.4 µM (≈ 3.33 µg/mL) | 17 µM (≈ 7.66 µg/mL)
COc1ccc2c(CN3CCC4(CC3)OCCO4)cn(CCCOc3ccccc3)c2c1 | 3 µM (≈ 1.31 µg/mL) | 10 µM (≈ 4.37 µg/mL)
COc1ccc2c(CN3CCC4(CC3)OCCCO4)cn(CCCOc3ccc(C)cc3)c2c1 | 1.3 µM (≈ 0.604 µg/mL) | 2.6 µM (≈ 1.21 µg/mL)
COc1ccc(OCCCn2cc(CN3CCCCC3)c3ccc(OC)cc32)cc1 | 34 µM (≈ 13.9 µg/mL) | > 50 µM
CCCCCCCCn1ccc2ccc(OCCCN3CCC4(CC3)OCCCO4)cc21 | 5.6 µM (≈ 2.48 µg/mL) | 28 µM (≈ 12.4 µg/mL)
CCCCCCCCn1cc(CN2CCCCC2)c2ccc(OC)cc21 | 7 µM (≈ 2.5 µg/mL) | 13 µM (≈ 4.64 µg/mL)
CCCCCCCCn1ccc2ccc(OCCCN3CCCCC3)cc21 | 13 µM (≈ 4.82 µg/mL) | 25 µM (≈ 9.26 µg/mL)
COc1ccc2c(CN3CCCCC3)cn(CCCOCc3ccccc3)c2c1 | 46 µM (≈ 18.1 µg/mL) | > 50 µM
CCCCCCCCn1cc(CN2CC3COCC(C2)O3)c2ccc(OC)cc21 | 17 µM (≈ 6.81 µg/mL) | 30 µM (≈ 12 µg/mL)
COc1ccc2c(CN3CCCCC3)cn(CCCOc3ccc(F)cc3)c2c1 | 20 µM (≈ 7.93 µg/mL) | 43 µM (≈ 17 µg/mL)
COc1ccc2c(CN3CCC4(CC3)OCCCO4)cn(CCCOc3ccccc3)c2c1 | 1.3 µM (≈ 0.586 µg/mL) | 3.1 µM (≈ 1.4 µg/mL)
COc1ccc2c(CN3CCC4(CC3)OCCCO4)cn(CCCCc3ccccc3)c2c1 | 1.6 µM (≈ 0.718 µg/mL) | 3.1 µM (≈ 1.39 µg/mL)
CCCCCCCCn1cc(CN2CCC3(CC2)OC[C@@H](C)O3)c2ccc(OC)cc21 | 0.6 µM (≈ 0.257 µg/mL) | 0.8 µM (≈ 0.343 µg/mL)
CCCCCCCCn1cc(CN2CCCC3(CC2)OCCCS3)c2ccc(OC)cc21 (stereo not given) | 0.5 µM (≈ 0.229 µg/mL) | 1 µM (≈ 0.459 µg/mL)
CCCCCCCCn1cc(CNC2Cc3ccccc3C2)c2ccc(OC)cc21 | 4 µM (≈ 1.62 µg/mL) | 
